The record followed here is ChEMBL document CHEMBL3046339, “Insecticidal activity of Maytenus species (Celastraceae) nortriterpene quinone methides against codling moth, Cydia pomonella (L.) (Lepidoptera: tortricidae)” (2000).

≈ marks a conversion by molar mass, not a printed value.

Holding throughout (format): functional
Test [1] relates to Cydia pomonella. Kind of test: Insecticidal activity against Cydia pomonella (codling moth) at 4 mg/kg assessed as growth regulation measured as number of head capsules of larvae after 10 days of continuous exposure Rvb = (1.5 +/- 0.2%).
In test [2] the test system is Cydia pomonella. The test is described as follows: Antifeedant activity against Cydia pomonella (codling moth) at 16 mg/kg diet topically measured after 5 days of continuous exposure (reference value: 6.7 +/- 6.7%).
Test [3] concerns Cydia pomonella. Kind of test: Antifeedant activity against Cydia pomonella (codling moth) at 18 mg/kg diet topically measured after 10 days of continuous exposure (reference value: 6.7 +/- 6.7%).
In test [4] the test system is Cydia pomonella. The test is described as follows: Insecticidal activity against Cydia pomonella (codling moth) at 18 mg/kg assessed as growth regulation measured as number of head capsules of larvae after 5 days of continuous exposure (reference value: 0.2 +/- 0.2%).
For test [5], the system named is Cydia pomonella. Kind of test: Insecticidal activity against Cydia pomonella (codling moth) assessed as mortality at 4 mg/kg diet topically measured after 5 days of continuous exposure (reference value: 0%). The conditions noted are these: topical, 120 h.
In test [6] the test system is Cydia pomonella. Kind of test: Antifeedant activity against Cydia pomonella (codling moth) at 12 mg/kg diet topically measured after 10 days of continuous exposure (reference value: 6.7 +/- 6.7%).
Test [7] relates to Cydia pomonella. Kind of test: Insecticidal activity against Cydia pomonella (codling moth) assessed as mortality at 16 mg/kg diet topically measured after 5 days of continuous exposure (reference value: 0%). The conditions noted are these: topical, 120 h.
The test system of test [8] is Cydia pomonella. Kind of test: Insecticidal activity against Cydia pomonella (codling moth) assessed as mortality at 18 mg/kg diet topically measured after 5 days of continuous exposure (reference value: 0%). The conditions noted are these: topical, 120 h.
Test [9] relates to Cydia pomonella. The test is described as follows: Antifeedant activity against Cydia pomonella (codling moth) at 1 mg/kg diet topically measured after 5 days of continuous exposure (reference value: 6.7 +/- 6.7%).
In test [10] the test system is Cydia pomonella. The test is described as follows: Insecticidal activity against Cydia pomonella (codling moth) assessed as mortality at 18 mg/kg diet topically measured after 10 days of continuous exposure (reference value: 3.3 +/- 3.3%). The conditions noted are these: topical, 240 h.
The subject of test [11] is Cydia pomonella. Kind of test: Insecticidal activity against Cydia pomonella (codling moth) assessed as mortality diet topically measured after 5 days of continuous exposure. The conditions noted are these: topical, 120 h.
The subject of test [12] is Cydia pomonella. Kind of test: Insecticidal activity against Cydia pomonella (codling moth) assessed as mortality at 4 mg/kg diet topically measured after 10 days of continuous exposure (reference value: 3.3 +/- 3.3%). The conditions noted are these: topical, 240 h.
Test [13] concerns Cydia pomonella. The test is described as follows: Insecticidal activity against Cydia pomonella (codling moth) at 20 mg/kg assessed as growth regulation measured as number of head capsules of larvae after 10 days of continuous exposure Rvb = (1.5 +/- 0.2%).
Test [14] has as its system Cydia pomonella. The test is described as follows: Insecticidal activity against Cydia pomonella (codling moth) assessed as mortality at 12 mg/kg diet topically measured after 10 days of continuous exposure (reference value: 3.3 +/- 3.3%). The conditions noted are these: topical, 240 h.
The test system of test [15] is Cydia pomonella. The test is described as follows: Insecticidal activity against Cydia pomonella (codling moth) at 12 mg/kg assessed as growth regulation measured as number of head capsules of larvae after 5 days of continuous exposure (reference value: 0.2 +/- 0.2%).
Test [16] has as its system Cydia pomonella. Kind of test: Insecticidal activity against Cydia pomonella (codling moth) at 1 mg/kg assessed as growth regulation measured as number of head capsules of larvae after 10 days of continuous exposure Rvb = (1.5 +/- 0.2%).
Test [17] deals with Cydia pomonella. The test is described as follows: Insecticidal activity against Cydia pomonella (codling moth) at 6 mg/kg assessed as growth regulation measured as number of head capsules of larvae after 5 days of continuous exposure (reference value: 0.2 +/- 0.2%).
Test [18] deals with Cydia pomonella. Kind of test: Insecticidal activity against Cydia pomonella (codling moth) assessed as mortality at 16 mg/kg diet topically measured after 10 days of continuous exposure (reference value: 3.3 +/- 3.3%). The conditions noted are these: topical, 240 h.
For test [19], the system named is Cydia pomonella. Kind of test: Insecticidal activity against Cydia pomonella (codling moth) at 16 mg/kg assessed as growth regulation measured as number of head capsules of larvae after 10 days of continuous exposure Rvb = (1.5 +/- 0.2%).
Test [20] has as its system Cydia pomonella. Kind of test: Antifeedant activity against Cydia pomonella (codling moth) at 2 mg/kg diet topically measured after 10 days of continuous exposure (reference value: 6.7 +/- 6.7%).

Turning to `CC1=C(O)C(=O)C=C2C1=CC=C1[C@@]2(C)CC[C@@]2(C)[C@@H]3C[C@](C)(O)C(=O)C[C@]3(C)CC[C@]12C` [20ALPHA-HYDROXYTINGENONE], the Activity in the test with Cydia pomonella [1] is listed as 0.6; in the test with Cydia pomonella [2], 100%; in the test with Cydia pomonella [3] it was 100%; with Cydia pomonella [4], 0; in the test on Cydia pomonella [6], 90%; in the test on Cydia pomonella [9], 6.7%. The Activity with Cydia pomonella [13] was 0; with Cydia pomonella [15] it was 0; in the test with Cydia pomonella [16], 1.2; in the test with Cydia pomonella [17], 0; in the test with Cydia pomonella [19] it was 0; in the test on Cydia pomonella [20], 3.3%. In addition, the mortality at 4 mg/kg in the test on Cydia pomonella [5] came out at 6.7%; with Cydia pomonella [12], 16.7%. The figures for the mortality at 16 mg/kg in the test with Cydia pomonella [7] and in the test with Cydia pomonella [18] were 60% and 93.3%, respectively. In addition, the mortality at 18 mg/kg in the test on Cydia pomonella [8] turned out to be 86.7%; in the test on Cydia pomonella [10] it was 93.3%. In the test on Cydia pomonella [11], the LC50 worked out at 13 mg/mL (≈ 29.8 mM). In addition, the mortality at 12 mg/kg in the test with Cydia pomonella [14] worked out at 60%.
